Counter-ions that a name gives are not always drawn.
Key:
[1] = tested on: shunt pathway activated by cobra venom factor; test: Test, Code 036 (C-Shunt inhibitor), lysis of human erythrocytes in autologous serum via shunt pathway; format: cell-based; conditions: Table I; two-fold serial dilutions
Description: (§1) An active inhibitor protects C2 from C1 and C4; (ii) Test, Code O35 (C3-C9 inhibitor) -- This test determines the ability of the late components of human complement (C3-C9) to lyse EAC l42 in the presence of appropriate dilutions of the test compound. An active inhibitor protects EAC 142 from lysis by human C3-C9; (iii) Test, Code 036 (C-Shunt inhibitor) -- In this test human erythrocytes rendered fragile are lysed in autologous serum via the shunt pathway activated by cobra venom factor in the presence of appropriate dilutions of the test compound. Inhibition of the shunt pathway results in failure of lysis; (iv) Forssman Vasculitis Test -- Here, the well known complement dependent lesion, Forssman vasculitis, is produced in guinea pigs by intradermal injection of rabbit anti-Forssman antiserum. […]

activated human C1 [2] = target: T1, activated human C1 (Homo sapiens, UniProt P09871); test: Test, Code 026 (C1 inhibitor); format: biochemical; conditions: Table II; highest active serial dilution
Description: as §1

activated human C1 [3] = target: T1, activated human C1; test: Intrinsic Therapeutic Index (Code 026 C1 inhibitor test versus anti-coagulant test); conditions: Table II
Description: The computation of an Intrinsic Therapeutic Index (ITI) was devised to correlate the results expressed in wells, obtained in the in vitro Code 026 (C1 inhibitor) test and the in vitro anti-coagulant (AC) test into a meaningful value which would aid in the net evaluation of the activity of the compounds of this invention.
The ITI is thus a measure of the separation of anti-complement and anti-coagulant activities; the higher the numerical value the more therapeutically useful the separation of activities.

whole complement = test: Complement Level Reduction Test, whole complement in serum of dosed guinea pigs by capillary tube assay; format: in vivo; conditions: i.p., 200 mg/kg
Description: An active inhibitor protects C2 from C1 and C4; (ii) Test, Code O35 (C3-C9 inhibitor) -- This test determines the ability of the late components of human complement (C3-C9) to lyse EAC l42 in the presence of appropriate dilutions of the test compound. An active inhibitor protects EAC 142 from lysis by human C3-C9; (iii) Test, Code 036 (C-Shunt inhibitor) -- In this test human erythrocytes rendered fragile are lysed in autologous serum via the shunt pathway activated by cobra venom factor in the presence of appropriate dilutions of the test compound. Inhibition of the shunt pathway results in failure of lysis; (iv) Forssman Vasculitis Test -- Here, the well known complement dependent lesion, Forssman vasculitis, is produced in guinea pigs by intradermal injection of rabbit anti-Forssman antiserum. The lesion is measured in terms of diameter, edema and hemorrhage and the extent to which a combined index of these is inhibited by prior intraperitoneal injection of the test compound at 200 mg/kg is then reported, unless otherwise stated; (v) Forssman Shock Test -- Lethal shock is produced in guinea pigs by an i.v. injection of anti-Forssman antiserum and the harmonic mean death time of treated guinea pigs is compared with that of simultaneous controls; (vi) Complement Level Reduction Test -- In this test, the above dosed guinea pigs, or others, are bled for serum and the complement level is determined in undiluted serum by the capillary tube method of U.S. Pat. No. 3,876,376 and compared to undosed control guinea pigs; and (vii) Cap 50 Test -- Here, appropriate amounts of the test compound are added to a pool of guinea pig serum in vitro, after which the undiluted serum capillary tube assay referred to above is run. The concentration of compound inhibiting 50% is reported.
With reference to Table I, guinea pigs weighing about 300 g were dosed intravenously (i.v.) or intraperitoneally (i.p.) with 200 mg/kg of the test compound dissolved in saline and adjusted to pH 7-8. […] Percent inhibition was calculated by comparison with simultaneous controls. […]

Citrated sheep plasma = test: in vitro anti-coagulant activity (AC), clotting of recalcified citrated sheep plasma; format: biochemical
Procedure: The sheep RBC's, kept in suspension throughout the clotting incubation time, become enmeshed in the fibrin matrix if a clot forms. Upon centrifugation of the plate, untrapped RBC's form buttons, the sizes of which correspond to the degree of clot inhibition; this providing a measure of anti-coagulant activity (AC). Sodium heparin is used as a positive control and activity is reported in wells appearing in Table I.
**Activity in wells a serial dilution assay. Higher well number indicates
higher activity. The serial dilutions are two-fold.

[4] = tested on: hereditary angioneurotic edema; conditions: New England Journal of Medicine, 286, 808-812 (1972); cited from earlier work
complement system = conditions: literature; cited from earlier work
[5] = tested on: human serum total hemolytic complement; conditions: in vitro and in vivo, reduction in total hemolytic complement activity; Pathologie Biologie, 25, 33-36 (1977); cited from earlier work

T1 sequence (P09871 16-688): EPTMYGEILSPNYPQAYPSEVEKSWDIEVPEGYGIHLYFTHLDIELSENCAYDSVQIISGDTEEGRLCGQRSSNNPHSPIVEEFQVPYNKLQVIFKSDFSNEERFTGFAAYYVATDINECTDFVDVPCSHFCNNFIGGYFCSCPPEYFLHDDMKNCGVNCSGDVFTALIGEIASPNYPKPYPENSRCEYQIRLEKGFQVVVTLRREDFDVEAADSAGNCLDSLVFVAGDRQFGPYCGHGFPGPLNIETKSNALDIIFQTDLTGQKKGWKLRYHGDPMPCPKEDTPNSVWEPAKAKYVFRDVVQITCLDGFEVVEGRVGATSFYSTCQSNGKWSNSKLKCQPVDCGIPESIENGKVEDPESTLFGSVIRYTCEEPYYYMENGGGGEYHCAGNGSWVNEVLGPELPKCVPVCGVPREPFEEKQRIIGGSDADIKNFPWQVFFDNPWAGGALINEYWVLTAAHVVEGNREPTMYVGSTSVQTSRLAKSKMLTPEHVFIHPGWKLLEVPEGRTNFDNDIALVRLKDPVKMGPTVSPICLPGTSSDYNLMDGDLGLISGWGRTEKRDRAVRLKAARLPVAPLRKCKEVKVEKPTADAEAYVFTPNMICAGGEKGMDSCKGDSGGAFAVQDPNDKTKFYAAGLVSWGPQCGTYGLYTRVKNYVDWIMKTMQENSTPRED
T1 sequence (P00736 18-705 partner): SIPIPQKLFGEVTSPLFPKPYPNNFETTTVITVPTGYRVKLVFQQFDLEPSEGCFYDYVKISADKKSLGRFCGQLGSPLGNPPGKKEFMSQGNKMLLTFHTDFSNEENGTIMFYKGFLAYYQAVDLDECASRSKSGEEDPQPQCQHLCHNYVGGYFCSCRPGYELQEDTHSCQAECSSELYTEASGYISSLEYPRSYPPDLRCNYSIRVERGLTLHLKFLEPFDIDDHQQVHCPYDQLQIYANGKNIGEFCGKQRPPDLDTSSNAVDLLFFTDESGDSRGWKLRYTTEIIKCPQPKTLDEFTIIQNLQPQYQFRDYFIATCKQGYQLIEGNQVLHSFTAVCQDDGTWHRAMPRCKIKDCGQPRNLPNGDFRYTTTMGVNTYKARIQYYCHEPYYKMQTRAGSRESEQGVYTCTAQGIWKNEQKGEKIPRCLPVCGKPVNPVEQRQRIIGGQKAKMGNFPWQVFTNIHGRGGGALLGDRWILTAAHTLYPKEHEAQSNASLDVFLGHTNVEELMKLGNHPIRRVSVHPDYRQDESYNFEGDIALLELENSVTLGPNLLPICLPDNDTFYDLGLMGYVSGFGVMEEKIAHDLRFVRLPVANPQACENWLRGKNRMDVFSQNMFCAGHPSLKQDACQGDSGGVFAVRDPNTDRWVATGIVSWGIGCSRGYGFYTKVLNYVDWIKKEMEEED
T1 sequence (P02745 23-245 partner): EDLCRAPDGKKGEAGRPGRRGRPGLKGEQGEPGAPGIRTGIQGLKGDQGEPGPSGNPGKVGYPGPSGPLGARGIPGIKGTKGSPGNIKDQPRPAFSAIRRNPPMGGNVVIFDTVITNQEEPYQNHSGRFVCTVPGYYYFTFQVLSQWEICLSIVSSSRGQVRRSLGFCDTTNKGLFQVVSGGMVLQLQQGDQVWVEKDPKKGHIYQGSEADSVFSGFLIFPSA
T1 sequence (P02746 28-253 partner): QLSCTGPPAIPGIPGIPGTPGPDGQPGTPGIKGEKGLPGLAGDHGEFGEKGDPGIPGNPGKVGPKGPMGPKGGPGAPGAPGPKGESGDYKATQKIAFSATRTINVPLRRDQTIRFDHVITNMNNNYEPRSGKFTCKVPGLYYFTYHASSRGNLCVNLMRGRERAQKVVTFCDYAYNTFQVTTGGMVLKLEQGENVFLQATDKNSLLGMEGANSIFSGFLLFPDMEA
T1 sequence (P02747 29-245 partner): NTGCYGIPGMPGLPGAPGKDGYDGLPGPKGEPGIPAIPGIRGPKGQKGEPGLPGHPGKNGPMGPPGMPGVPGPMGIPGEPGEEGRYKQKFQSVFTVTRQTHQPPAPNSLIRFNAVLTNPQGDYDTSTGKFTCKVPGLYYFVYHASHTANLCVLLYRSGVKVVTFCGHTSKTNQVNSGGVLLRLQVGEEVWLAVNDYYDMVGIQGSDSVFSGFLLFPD

O=C(Nc1cc(NC(=O)Nc2cc(C(=O)O)cc(C(=O)O)c2)cc(NC(=O)Nc2cc(C(=O)O)cc(C(=O)O)c2)c1)Nc1cc(C(=O)O)cc(C(=O)O)c1 [5,5',5"-(s-Phenenyltriureylene)triisophthalic acid hexasodium salt]
Shunt Inhibition 036 Wells [1]: +1 Wells | In Vitro Activity, Complement Inhibiting Activity (Wells) Code 026 (activated human C1 [2]): +6 Wells | Intrinsic Therapeutic Index (activated human C1 [3]; antilogarithm (base 2) of the difference in wells): 256 | Logarithmic Difference Expressed as Wells (activated human C1 [3]; log (base 2) difference Code 026 minus AC): +8 Wells | In Vivo Activity (Guinea Pig) % Inhibition, Intraperitoneal, 30 mins. (whole complement; 30 mins.): -43% | In Vivo Activity (Guinea Pig) % Inhibition, Intraperitoneal, 60 mins. (whole complement; 60 mins.): -9% | In Vivo Activity (Guinea Pig) % Inhibition, Intraperitoneal, 120 mins. (whole complement; 120 mins.): -41% | AC Wells (Citrated sheep plasma; Table I, anti-coagulant activity, two-fold serial dilutions): < -2 Wells | In Vitro Activity, Anti-Coagulant Activity (Wells) AC (Citrated sheep plasma; Table II, highest active serial dilution): -2 Wells

Cc1ccc(C(=O)Nc2ccc(S(=O)(=O)O)c3cc(S(=O)(=O)O)cc(S(=O)(=O)O)c23)cc1NC(=O)c1cccc(NC(=O)Nc2cccc(C(=O)Nc3cc(C(=O)Nc4ccc(S(=O)(=O)O)c5cc(S(=O)(=O)O)cc(S(=O)(=O)O)c45)ccc3C)c2)c1 [Suramin]
use in treatment of hereditary angioneurotic edema [4]: used with success | anticomplementary effect / complement inhibition (complement system): competitive inhibitor of the complement system

Nc1ccc2cc(S(=O)(=O)O)cc(O)c2c1N=Nc1ccc(NC(=O)Nc2ccc(N=Nc3c(N)ccc4cc(S(=O)(=O)O)cc(O)c34)c(S(=O)(=O)O)c2)cc1S(=O)(=O)O [chlorazol fast pink, 3,3'-ureylenebis-[6-(2-amino-8-hydroxy-6-sulfo-1-naphthylazo)]benzenesulfonic acid, tetrasodium salt]
anticomplementary effect / complement inhibition (complement system): anticomplementary effect

NCCCCCC(=O)O [epsilon-aminocaproic acid]
use in treatment of hereditary angioneurotic edema [4]: used with success

NC[C@H]1CC[C@H](C(=O)O)CC1 [tranexamic acid]
use in treatment of hereditary angioneurotic edema [4]: used with success

heparin
anticomplementary effect / complement inhibition (complement system): anticomplementary effect

pentosan-poly-sulfoester
anticomplementary activity on human serum [5]: anticomplementary activity on human serum both in vitro and in vivo
